Laboratory results: the supplement of paper PMC10307832

Each cell line was assayed with CC1=CC(=CC=C1)NC2=NC(=CS2)C3=CC=NC=C3 + O=C(CCCCCCC(=O)Nc1ccccc1)NO [Vorinostat] (partner 1 µM) (assay: relative viability (nuclei count vs DMSO), 5 days (fraction); higher = more cells survive). Settings: first compound 0.08 µM.
Method in brief: (§1)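 The day after seeding in 1536-well plates, lung cancer cell lines were treated by pin tool with a single drug, or with a fixed anchor-drug dose together with five library-drug doses (not always all listed) in √10 steps. After 5 days, a combined fix-and-stain solution (final 0.05% Triton X-100, 1% formaldehyde, 1 ug/ml Hoechst) was added. Nuclei counted on 4× images gave relative viability as treated counts over vehicle counts, reported as the median of duplicate plates.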

Cell Line | relative viability
NCI-H2023 | 0.594
A-427 | 0.815
NCI-H460 | 0.54
NCI-H727 | 0.967
NCI-H1755 | 0.621
NCI-H520 | 0.624
NCI-H2405 | 0.874
SW 1573 | 0.739
NCI-H1395 | 0.618
201T | 0.933
NCI-H1975 | 0.656
HCC-827 | 0.778
NCI-H2347 | 0.512
NCI-H1355 | 0.521
NCI-H650 | 0.414
CAL-12T | 0.565
NCI-H1666 | 0.622
EPLC-272H | 0.483
NCI-H23 | 0.519
NCI-H1915 | 0.442
NCI-H1437 | 0.722
NCI-H322M | 0.788
NCI-H2085 | 0.763
HCC-15 | 0.678
NCI-H1944 | 0.364
PC-3 [JPC-3] | 0.579
EKVX | 0.31
LC-2-ad | 0.607
NCI-H1650 | 0.587
NCI-H2170 | 0.695

Same assay, conditions: first compound 0.253 µM

Cell Line | relative viability
HARA | 0.523
NCI-H441 | 0.955
LCLC-97TM1 | 0.741
NCI-H2023 | 0.429
A-427 | 0.835
NCI-H460 | 0.536
NCI-H1755 | 0.761
NCI-H520 | 0.694
NCI-H2405 | 0.613
SW 1573 | 0.748
201T | 0.937
NCI-H1975 | 0.694
HCC-827 | 0.772
NCI-H2347 | 0.671
NCI-H1355 | 0.458
NCI-H650 | 0.429
CAL-12T | 0.74
NCI-H1666 | 0.821
EPLC-272H | 0.353
NCI-H23 | 0.613
NCI-H1915 | 0.452
NCI-H1437 | 0.732
NCI-H322M | 0.759
NCI-H2085 | 0.763
HCC-15 | 0.645
NCI-H1944 | 0.489
EKVX | 0.585
LC-2-ad | 0.647
NCI-H1650 | 0.533
NCI-H2170 | 0.901

Same assay, conditions: first compound 0.8 µM

Cell Line | relative viability
HARA | 0.501
NCI-H441 | 0.842
LCLC-97TM1 | 0.623
NCI-H2023 | 0.689
A-427 | 0.857
NCI-H460 | 0.562
NCI-H727 | 1.1
NCI-H1755 | 0.726
NCI-H520 | 0.779
NCI-H2405 | 0.892
SW 1573 | 0.815
NCI-H1395 | 0.804
201T | 0.92
NCI-H1975 | 0.593
HCC-827 | 0.819
NCI-H2347 | 0.411
NCI-H1355 | 0.429

Cell Line | relative viability
NCI-H650 | 0.395
CAL-12T | 0.85
NCI-H1666 | 0.702
EPLC-272H | 0.465
NCI-H23 | 0.596
NCI-H1915 | 0.477
NCI-H1437 | 0.611
NCI-H322M | 0.916
NCI-H2085 | 0.693
HCC-15 | 0.773
NCI-H1944 | 0.529
PC-3 [JPC-3] | 0.811
EKVX | 0.507
LC-2-ad | 0.688
NCI-H1650 | 0.489
NCI-H2170 | 0.731

Same assay, conditions: first compound 2.53 µM

Cell Line | relative viability
HARA | 0.391
NCI-H441 | 0.746
LCLC-97TM1 | 0.601
NCI-H2023 | 0.531
A-427 | 0.912
NCI-H460 | 0.462
NCI-H1755 | 0.611
NCI-H520 | 0.851
SW 1573 | 0.727
NCI-H1395 | 0.478
201T | 0.842
NCI-H1975 | 0.707
HCC-827 | 0.651
NCI-H2347 | 0.657
NCI-H1355 | 0.403
NCI-H650 | 0.624

Cell Line | relative viability
CAL-12T | 0.609
NCI-H1666 | 0.79
EPLC-272H | 0.292
NCI-H23 | 0.526
NCI-H1915 | 0.501
NCI-H1437 | 0.718
NCI-H322M | 0.814
NCI-H2085 | 0.755
HCC-15 | 0.67
NCI-H1944 | 0.366
PC-3 [JPC-3] | 0.575
EKVX | 0.488
LC-2-ad | 0.624
NCI-H1650 | 0.51
NCI-H2170 | 0.697

Same assay, conditions: first compound 8 µM

Cell Line | relative viability
HARA | 0.302
NCI-H441 | 0.76
LCLC-97TM1 | 0.988
NCI-H2023 | 0.405
A-427 | 0.753
NCI-H460 | 0.395
NCI-H727 | 1.24
NCI-H1755 | 0.605
NCI-H520 | 0.838
NCI-H2405 | 0.839
SW 1573 | 0.687
NCI-H1395 | 0.537
201T | 0.76
NCI-H1975 | 0.554
HCC-827 | 0.653
NCI-H2347 | 0.501
NCI-H1355 | 0.469

Cell Line | relative viability
NCI-H650 | 0.599
CAL-12T | 0.716
NCI-H1666 | 0.735
EPLC-272H | 0.639
NCI-H23 | 0.612
NCI-H1915 | 0.525
NCI-H1437 | 0.362
NCI-H322M | 0.95
NCI-H2085 | 0.645
HCC-15 | 0.636
NCI-H1944 | 0.408
PC-3 [JPC-3] | 0.803
EKVX | 0.502
LC-2-ad | 0.658
NCI-H1650 | 0.404
NCI-H2170 | 0.599

What follows are cell lines tested with CC1=CC(=CC=C1)NC2=NC(=CS2)C3=CC=NC=C3 + Cc1nc(Nc2ncc(C(=O)Nc3c(C)cccc3Cl)s2)cc(N2CCN(CCO)CC2)n1 [Dasatinib] (partner 0.075 µM) in the same assay as above. Settings: first compound 0.08 µM.
Method in brief: as §1

Cell Line | relative viability
HARA | 0.194
NCI-H441 | 0.584
